# US20240190849A1, “AMINOPYRIMIDINE COMPOUNDS AND METHODS OF THEIR USE” (TYRA BIOSCIENCES, INC., priority 2021, published 2024)
# Experiments:
# Conditions in all cases: FGFR binding data
# FGFR3 (V555M) = molecular target: T1, FGFR3 (V555M) (Homo sapiens, UniProt P22607, V555M); test: Kinase binding assay (kinase-tagged T7 phage, affinity beads, qPCR readout), FGFR3 (V555M)
# T1 construct: made in house; host or cells: E. coli derived from BL21, infected with T7 phage
# How it was run: (§1)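 Competition binding: kinases displaced from biotinylated-ligand streptavidin beads by test compound in binding buffer (20% SeaBlock, 0.17×PBS, 0.05% Tween 20, 6 mM DTT), 1 hour at room temperature, 0.9% DMSO. Bead-bound kinase eluted with 0.5 μM free ligand, quantified by qPCR. Kd from 11-point 3-fold dilutions, Hill slope fixed at −1.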
# FGFR2 = molecular target: T2, FGFR2 (Homo sapiens, UniProt P21802); test: Kinase binding assay (kinase-tagged T7 phage, affinity beads, qPCR readout), FGFR2
# T2 construct: made in house; host or cells: E. coli derived from BL21, infected with T7 phage
# How it was run: as §1
# FGFR3 = molecular target: T3, FGFR3 (Homo sapiens, UniProt P22607); test: Kinase binding assay (kinase-tagged T7 phage, affinity beads, qPCR readout), FGFR3
# T3 construct: made in house; host or cells: E. coli derived from BL21, infected with T7 phage
# How it was run: as §1
# FGFR1 = molecular target: T4, FGFR1 (Homo sapiens, UniProt P11362); test: Kinase binding assay (kinase-tagged T7 phage, affinity beads, qPCR readout), FGFR1
# T4 construct: made in house; host or cells: E. coli derived from BL21, infected with T7 phage
# How it was run: as §1
# T1 sequence (P22607 23-806 V555M): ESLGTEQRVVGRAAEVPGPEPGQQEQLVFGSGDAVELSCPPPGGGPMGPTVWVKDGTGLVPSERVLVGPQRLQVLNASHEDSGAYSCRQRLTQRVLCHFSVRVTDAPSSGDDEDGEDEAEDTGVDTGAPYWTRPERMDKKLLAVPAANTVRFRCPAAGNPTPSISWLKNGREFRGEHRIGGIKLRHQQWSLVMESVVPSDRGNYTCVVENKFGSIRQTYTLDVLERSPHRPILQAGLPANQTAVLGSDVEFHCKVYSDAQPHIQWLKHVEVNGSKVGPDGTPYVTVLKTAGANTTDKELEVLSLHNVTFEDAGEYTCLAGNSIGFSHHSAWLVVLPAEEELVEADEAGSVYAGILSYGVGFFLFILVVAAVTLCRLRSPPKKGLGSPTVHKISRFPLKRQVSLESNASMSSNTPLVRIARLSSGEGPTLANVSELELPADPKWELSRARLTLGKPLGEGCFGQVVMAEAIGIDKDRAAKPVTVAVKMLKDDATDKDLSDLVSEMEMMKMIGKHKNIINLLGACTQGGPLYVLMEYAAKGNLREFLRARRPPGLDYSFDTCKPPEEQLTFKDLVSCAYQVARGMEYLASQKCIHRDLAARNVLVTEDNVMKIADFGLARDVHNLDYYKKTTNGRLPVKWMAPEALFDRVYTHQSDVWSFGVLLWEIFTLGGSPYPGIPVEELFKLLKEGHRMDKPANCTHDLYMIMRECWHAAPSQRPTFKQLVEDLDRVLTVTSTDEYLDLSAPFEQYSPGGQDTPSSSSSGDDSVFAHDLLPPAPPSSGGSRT
# T3 sequence (P22607 23-806): as the sequence (P22607 23-806 V555M) above, with M533V counted along it
# T2 sequence (P21802 22-821): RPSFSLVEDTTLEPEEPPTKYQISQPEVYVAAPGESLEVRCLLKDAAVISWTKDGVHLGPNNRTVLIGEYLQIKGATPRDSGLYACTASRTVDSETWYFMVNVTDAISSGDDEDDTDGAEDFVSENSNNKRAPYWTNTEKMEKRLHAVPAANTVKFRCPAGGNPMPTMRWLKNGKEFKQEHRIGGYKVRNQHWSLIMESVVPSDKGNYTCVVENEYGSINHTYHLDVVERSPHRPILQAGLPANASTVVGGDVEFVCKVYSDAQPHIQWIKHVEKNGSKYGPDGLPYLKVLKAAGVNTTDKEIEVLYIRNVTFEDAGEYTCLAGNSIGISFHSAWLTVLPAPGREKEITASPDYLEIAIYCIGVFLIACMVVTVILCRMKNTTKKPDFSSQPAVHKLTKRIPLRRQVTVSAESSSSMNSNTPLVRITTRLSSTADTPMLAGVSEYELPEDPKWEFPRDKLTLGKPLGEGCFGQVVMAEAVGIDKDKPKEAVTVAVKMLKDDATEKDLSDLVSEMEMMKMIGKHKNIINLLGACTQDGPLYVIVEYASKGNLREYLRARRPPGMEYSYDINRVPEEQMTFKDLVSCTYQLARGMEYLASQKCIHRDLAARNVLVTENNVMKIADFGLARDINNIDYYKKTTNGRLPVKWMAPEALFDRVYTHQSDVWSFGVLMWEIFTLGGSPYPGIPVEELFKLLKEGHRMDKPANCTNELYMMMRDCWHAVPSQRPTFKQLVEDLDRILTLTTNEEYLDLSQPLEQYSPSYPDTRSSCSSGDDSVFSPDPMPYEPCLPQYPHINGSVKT
# T4 sequence (P11362 22-822): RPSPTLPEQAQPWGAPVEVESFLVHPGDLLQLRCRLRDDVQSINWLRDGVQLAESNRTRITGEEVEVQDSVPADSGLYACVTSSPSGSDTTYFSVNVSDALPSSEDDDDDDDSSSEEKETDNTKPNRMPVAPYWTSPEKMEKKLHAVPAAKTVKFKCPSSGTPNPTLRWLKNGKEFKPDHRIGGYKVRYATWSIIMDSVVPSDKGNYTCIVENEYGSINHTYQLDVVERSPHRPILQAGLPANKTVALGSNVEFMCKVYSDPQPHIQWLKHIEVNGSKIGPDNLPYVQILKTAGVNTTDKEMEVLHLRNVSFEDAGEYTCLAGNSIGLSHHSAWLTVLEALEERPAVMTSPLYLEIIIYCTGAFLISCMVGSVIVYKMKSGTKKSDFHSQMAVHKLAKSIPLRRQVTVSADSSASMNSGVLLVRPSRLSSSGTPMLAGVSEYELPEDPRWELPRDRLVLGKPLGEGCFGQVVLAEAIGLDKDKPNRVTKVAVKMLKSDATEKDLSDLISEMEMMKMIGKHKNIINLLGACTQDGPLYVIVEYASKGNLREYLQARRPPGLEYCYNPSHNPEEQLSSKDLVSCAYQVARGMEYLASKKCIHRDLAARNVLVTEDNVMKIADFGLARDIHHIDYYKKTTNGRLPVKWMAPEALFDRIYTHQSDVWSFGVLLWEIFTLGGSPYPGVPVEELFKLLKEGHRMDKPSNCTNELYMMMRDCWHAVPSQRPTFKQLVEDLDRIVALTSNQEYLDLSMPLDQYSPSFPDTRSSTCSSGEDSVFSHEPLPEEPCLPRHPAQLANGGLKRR
SMILES,Kd (FGFR3 (V555M)),Kd (FGFR2),Kd (FGFR3),Kd (FGFR1)
"CC#CC(=O)Nc1ccc2c(-c3nc(Nc4cnn(CCO)c4)ncc3Cl)cn(C)c2c1 [Example 135, N-[3-[5-chloro-2-[[1-(2-hydroxyethyl)pyrazol-4-yl]amino]pyrimidin-4-yl]-1-methyl-indol-6-yl]but-2-ynamide]",0.1 to 100 nM,0.1 to 100 nM,100 to 250 nM,250 to 1000 nM
"C=CC(=O)Nc1ccc2c(c1)c(C)cn2-c1ccnc(Nc2cnn(CCO)c2)n1 [Example 137, N-[1-[2-[[1-(2-hydroxyethyl)pyrazol-4-yl]amino]pyrimidin-4-yl]-3-methyl-indol-5-yl]prop-2-enamide]",0.1 to 100 nM,0.1 to 100 nM,0.1 to 100 nM,0.1 to 100 nM
"C#CC(=O)Nc1ccc2c(c1)c(C)cn2-c1nc(Nc2ccnn2C)ncc1F [Example 138, N-[1-[5-fluoro-2-[(2-methylpyrazol-3-yl)amino]pyrimidin-4-yl]-3-methyl-indol-5-yl]prop-2-ynamide]",0.1 to 100 nM,0.1 to 100 nM,0.1 to 100 nM,100 to 250 nM
"CC#CC(=O)Nc1ccc2c(c1)c(C)cn2-c1nc(Nc2ccnn2C)ncc1F [Example 139, N-[1-[5-fluoro-2-[(2-methylpyrazol-3-yl)amino]pyrimidin-4-yl]-3-methyl-indol-5-yl]but-2-ynamide]",> 1000 nM,> 1000 nM,> 1000 nM,> 1000 nM
"CC#CC(=O)Nc1ccc2c(c1)c(C)cn2-c1nc(Nc2cnn(CCO)c2)ncc1C [Example 140, N-[1-[2-[[1-(2-hydroxyethyl)pyrazol-4-yl]amino]-5-methyl-pyrimidin-4-yl]-3-methyl-indol-5-yl]but-2-ynamide]",0.1 to 100 nM,0.1 to 100 nM,0.1 to 100 nM,100 to 250 nM
"C#CC(=O)Nc1cnc2c(c1)c(C)cn2-c1nc(Nc2cnn(CCO)c2)ncc1C [Example 141, N-[1-[2-[[1-(2-hydroxyethyl)pyrazol-4-yl]amino]-5-methyl-pyrimidin-4-yl]-3-methyl-pyrrolo[2,3-b]pyridin-5-yl]prop-2-ynamide]",0.1 to 100 nM,0.1 to 100 nM,0.1 to 100 nM,0.1 to 100 nM
"C#CC(=O)Nc1ccc2c(-c3ccnc(Nc4cnn(CCO)c4)n3)cn(C)c2c1 [Example 143, N-[3-[2-[[1-(2-hydroxyethyl)pyrazol-4-yl]amino]pyrimidin-4-yl]-1-methyl-indol-6-yl]prop-2-ynamide]",0.1 to 100 nM,0.1 to 100 nM,0.1 to 100 nM,0.1 to 100 nM
"CC#CC(=O)Nc1ccc2c(-c3ccnc(Nc4cnn(CCO)c4)n3)cn(C)c2c1 [Example 145, N-[3-[2-[[1-(2-hydroxyethyl)pyrazol-4-yl]amino]pyrimidin-4-yl]-1-methyl-indol-6-yl]but-2-ynamide]",250 to 1000 nM,250 to 1000 nM,250 to 1000 nM,> 1000 nM
"C=CC(=O)N(C)c1ccc2c(c1)c(C)cn2-c1nc(Nc2ccnn2C)ncc1C [Example 151, N-methyl-N-[3-methyl-1-[5-methyl-2-[(2-methylpyrazol-3-yl)amino]pyrimidin-4-yl]indol-5-yl]prop-2-enamide]",> 1000 nM,> 1000 nM,> 1000 nM,> 1000 nM
"CC#CC(=O)N(C)c1ccc2c(c1)c(C)cn2-c1nc(Nc2ccnn2C)ncc1C [Example 152, N-methyl-N-[3-methyl-1-[5-methyl-2-[(2-methylpyrazol-3-yl)amino]pyrimidin-4-yl]indol-5-yl]but-2-ynamide]",> 1000 nM,> 1000 nM,> 1000 nM,> 1000 nM
"C=CC(=O)Nc1ccc2c(c1)c(C)cn2-c1nc(Nc2cccnc2F)ncc1F [Example 157, N-[1-[5-fluoro-2-[(2-fluoro-3-pyridyl)amino]pyrimidin-4-yl]-3-methyl-indol-5-yl]prop-2-enamide]",0.1 to 100 nM,0.1 to 100 nM,0.1 to 100 nM,250 to 1000 nM
"C=CC(=O)Nc1ccc2c(c1)c(C)cn2-c1nc(Nc2cc(C)sn2)ncc1F [Example 161, N-[1-[5-fluoro-2-[(5-methylisothiazol-3-yl)amino]pyrimidin-4-yl]-3-methyl-indol-5-yl]prop-2-enamide]",0.1 to 100 nM,0.1 to 100 nM,0.1 to 100 nM,0.1 to 100 nM
"CCn1cc(Nc2ncc(F)c(-n3cc(C)c4cc(NC(=O)/C=C/CN(C)C)cnc43)n2)c(C)n1 [Example 171, (E)-4-(dimethylamino)-N-[1-[2-[(1-ethyl-3-methyl-pyrazol-4-yl)amino]-5-fluoro-pyrimidin-4-yl]-3-methyl-pyrrolo[2,3-b]pyridin-5-yl]but-2-enamide]",100 to 250 nM,100 to 250 nM,0.1 to 100 nM,100 to 250 nM
"Cc1nn(C)cc1Nc1ncc(F)c(-n2cc(C)c3cc(NC(=O)/C=C/CN(C)C)cnc32)n1 [Example 179, (E)-4-(dimethylamino)-N-[1-[2-[(1,3-dimethylpyrazol-4-yl)amino]-5-fluoro-pyrimidin-4-yl]-3-methyl-pyrrolo[2,3-b]pyridin-5-yl]but-2-enamide]",100 to 250 nM,100 to 250 nM,100 to 250 nM,250 to 1000 nM
"Cc1cn(-c2nc(Nc3cnn(C[C@@H](C)O)c3)ncc2F)c2ncc(NC(=O)/C=C/CN(C)C)cc12 [Example 191, (E)-4-(dimethylamino)-N-[1-[5-fluoro-2-[[1-[(2R)-2-hydroxypropyl]pyrazol-4-yl]amino]pyrimidin-4-yl]-3-methyl-pyrrolo[2,3-b]pyridin-5-yl]but-2-enamide]",0.1 to 100 nM,0.1 to 100 nM,0.1 to 100 nM,0.1 to 100 nM
"Cc1cn(-c2nc(Nc3cnn(C[C@H](C)O)c3)ncc2F)c2ncc(NC(=O)/C=C/CN(C)C)cc12 [Example 196, (E)-4-(dimethylamino)-N-[1-[5-fluoro-2-[[1-[(2S)-2-hydroxypropyl]pyrazol-4-yl]amino]pyrimidin-4-yl]-3-methyl-pyrrolo[2,3-b]pyridin-5-yl]but-2-enamide]",0.1 to 100 nM,0.1 to 100 nM,0.1 to 100 nM,0.1 to 100 nM

# Second part, the molecule after the results:
Kd (FGFR3 (V555M)),Kd (FGFR2),Kd (FGFR3),Kd (FGFR1),SMILES
0.1 to 100 nM,0.1 to 100 nM,0.1 to 100 nM,0.1 to 100 nM,"C#CC(=O)Nc1ccc2c(-c3nc(Nc4cnn(CCO)c4)ncc3F)cn(C)c2c1 [Example 142, N-[3-[5-fluoro-2-[[1-(2-hydroxyethyl)pyrazol-4-yl]amino]pyrimidin-4-yl]-1-methyl-indol-6-yl]prop-2-ynamide]"
0.1 to 100 nM,0.1 to 100 nM,0.1 to 100 nM,100 to 250 nM,"C=CC(=O)Nc1ccc2c(c1)c(C)cn2-c1nc(Nc2conc2C)ncc1F [Example 155, N-[1-[5-fluoro-2-[(3-methylisoxazol-4-yl)amino]pyrimidin-4-yl]-3-methyl-indol-5-yl]prop-2-enamide]"
0.1 to 100 nM,0.1 to 100 nM,0.1 to 100 nM,0.1 to 100 nM,"C=CC(=O)Nc1ccc2c(c1)c(C)cn2-c1nc(Nc2cn(C(C)(C)C#N)nc2C)ncc1F [Example 159, N-[1-[2-[[1-(1-cyano-1-methyl-ethyl)-3-methyl-pyrazol-4-yl]amino]-5-fluoro-pyrimidin-4-yl]-3-methyl-indol-5-yl]prop-2-enamide]"
0.1 to 100 nM,0.1 to 100 nM,0.1 to 100 nM,0.1 to 100 nM,"C=CC(=O)Nc1ccc2c(-c3ccnc(Nc4cnn(CC(F)(F)F)c4)n3)cn(C)c2c1 [Example 168, N-[1-methyl-3-[2-[[1-(2,2,2-trifluoroethyl)pyrazol-4-yl]amino]pyrimidin-4-yl]indol-6-yl]prop-2-enamide]"
0.1 to 100 nM,0.1 to 100 nM,0.1 to 100 nM,250 to 1000 nM,"C=CC(=O)Nc1ccc2c(-c3nc(Nc4cn(CC(F)F)nc4C)ncc3F)cn(C)c2c1 [Example 169, N-[3-[2-[[1-(2,2-difluoroethyl)-3-methyl-pyrazol-4-yl]amino]-5-fluoro-pyrimidin-4-yl]-1-methyl-indol-6-yl]prop-2-enamide]"
0.1 to 100 nM,0.1 to 100 nM,0.1 to 100 nM,100 to 250 nM,"C=CC(=O)Nc1ccc2c(-c3ccnc(Nc4cn(CC(F)F)nc4C)n3)cn(C)c2c1 [Example 170, N-[3-[2-[[1-(2,2-difluoroethyl)-3-methyl-pyrazol-4-yl]amino]pyrimidin-4-yl]-1-methyl-indol-6-yl]prop-2-enamide]"
0.1 to 100 nM,0.1 to 100 nM,0.1 to 100 nM,250 to 1000 nM,"C=CC(=O)Nc1ccc2c(-c3ccnc(Nc4cn(C)nc4C)n3)cn(C)c2c1 [Example 172, N-[3-[2-[(1,3-dimethylpyrazol-4-yl)amino]pyrimidin-4-yl]-1-methyl-indol-6-yl]prop-2-enamide]"
0.1 to 100 nM,100 to 250 nM,0.1 to 100 nM,250 to 1000 nM,"C=CC(=O)Nc1ccc2c(-c3ccnc(Nc4cn(CC)nc4C)n3)cn(C)c2c1 [Example 173, N-[3-[2-[(1-ethyl-3-methyl-pyrazol-4-yl)amino]pyrimidin-4-yl]-1-methyl-indol-6-yl]prop-2-enamide]"
0.1 to 100 nM,0.1 to 100 nM,0.1 to 100 nM,250 to 1000 nM,"C=CC(=O)Nc1ccc2c(-c3nc(Nc4cn(CC)nc4C)ncc3F)cn(C)c2c1 [Example 177, N-[3-[2-[(1-ethyl-3-methyl-pyrazol-4-yl)amino]-5-fluoro-pyrimidin-4-yl]-1-methyl-indol-6-yl]prop-2-enamide]"
0.1 to 100 nM,0.1 to 100 nM,0.1 to 100 nM,0.1 to 100 nM,"C=CC(=O)Nc1ccc2c(c1)c(C)cn2-c1nc(Nc2cnn(CCO)c2C)ncc1F [Example 192, N-[1-[5-fluoro-2-[[1-(2-hydroxyethyl)-5-methyl-pyrazol-4-yl]amino]pyrimidin-4-yl]-3-methyl-indol-5-yl]prop-2-enamide]"
0.1 to 100 nM,0.1 to 100 nM,0.1 to 100 nM,0.1 to 100 nM,C=CC(=O)Nc1ccc2c(c1)c(C)cn2-c1nc(Nc2cnn(CCOCC)c2)ncc1F [Example 193]
